The source of these data is patent US8658697B2 (priority 2004, dated 2014).

What is called EC50 is the concentration giving half of the maximal effect.

In this experiment the test system is Tacaribe virus (TRVL 11573). As to the kind of experiment: microbe, parasite or virus in culture. The class given is cell-based. The settings on record: Mammarenavirus tacaribeense, Vero, read-out: Tacaribe EC50.
For the compound `CC(NC(=O)NNS(=O)(=O)c1ccc(OC(F)(F)F)cc1)(C(F)(F)F)C(F)(F)F` [Example 15, N-2-(1,1,1,3,3,3-Hexafluoro-2-methylpropyl)-2-[(4-trifluoromethoxyphenyl)sulfonyl] hydrazine-1-carboxamide], the EC50 was in the range of 500 to 1000 nM.

As to `CC(NC(=O)NNS(=O)(=O)c1ccc(F)cc1)(C(F)(F)F)C(F)(F)F` [Example 16, N-2-(1,1,1,3,3,3-Hexafluoro-2-methylpropyl)-2-[(4-fluoro-phenyl)sulfonyl]hydrazine-1-carboxamide], the EC50 was in the range of 500 to 1000 nM. For `COc1cccc(S(=O)(=O)NNC(=O)NC(C)(C(F)(F)F)C(F)(F)F)c1` [Example 17, N-2-(1,1,1,3,3,3-Hexafluoro-2-methylpropyl)-2-[(3-methoxyphenyl)sulfonyl]hydrazine-1-carboxamide] the value was 500 to 1000 nM. Under `Cc1ccccc1S(=O)(=O)NNC(=O)NC(C)(C(F)(F)F)C(F)(F)F` [Example 18, N-2-(1,1,1,3,3,3-Hexafluoro-2-methylpropyl)-2-[(2-methoxyphenyl)sulfonyl]hydrazine-1-carboxamide] stands 500 to 1000 nM; under `CC(NC(=O)NNS(=O)(=O)c1cccc(C(F)(F)F)c1)(C(F)(F)F)C(F)(F)F` [Example 19], 500 to 1000 nM. Turning to `COc1ccc(S(=O)(=O)NNC(=O)NC(C)(C(F)(F)F)C(F)(F)F)c(OC)c1` [Example 20, N-2-(1,1,1,3,3,3-Hexafluoro-2-methylpropyl)-2-[(2,4-dimethoxyphenyl)sulfonyl] hydrazine-1-carboxamide], the EC50 lay within 500 to 1000 nM. For `Cc1cccc(S(=O)(=O)NNC(=O)NC(C)(C(F)(F)F)C(F)(F)F)c1` [Example 22, N-2-(1,1,1,3,3,3-Hexafluoro-2-methylpropyl)-2-[(3-methylphenyl)sulfonyl]hydrazine-1-carboxamide], the EC50 fell in the range of 500 to 1000 nM. For `CC(NC(=O)NNS(=O)(=O)c1ccc(C(F)(F)F)cc1)(C(F)(F)F)C(F)(F)F` [Example 23, N-2-(1,1,1,3,3,3-Hexafluoro-2-methylpropyl)-2-[(4-trifluoromethylphenyl)sulfonyl] hydrazine-1-carboxamide] the value was 500 to 1000 nM; for `CC(NC(=O)NNS(=O)(=O)c1ccccc1C(F)(F)F)(C(F)(F)F)C(F)(F)F` [Example 24, N-2-(1,1,1,3,3,3-Hexafluoro-2-methylpropyl)-2-[(2-trifluoromethylphenyl)sulfonyl] hydrazine-1-carboxamide], 1000 to 5000 nM; for `CC(NC(=O)NNS(=O)(=O)c1ccc(S(=O)(=O)N2CCCC2)cc1)(C(F)(F)F)C(F)(F)F` [Example 25, N-2-(1,1,1,3,3,3-Hexafluoro-2-methylpropyl)-2-[4-(pyrrolidin-1-sulfonyl)phenylsulfonyl]hydrazine-1-carboxamide], 1000 to 5000 nM. For `CC(NC(=O)NNS(=O)(=O)c1ccccc1Cl)(C(F)(F)F)C(F)(F)F` [Example 26, N-2-(1,1,1,3,3,3-Hexafluoro-2-methylpropyl)-2-[(2-chlorophenyl)sulfonyl]hydrazine-1-carboxamide] the value was 1000 to 5000 nM; for `CC(NC(=O)NNS(=O)(=O)c1ccc(N2CCOCC2)nc1)(C(F)(F)F)C(F)(F)F` [Example 27, N-2-(1,1,1,3,3,3-Hexafluoro-2-methylpropyl)-2-(2-(5-morpholin-4-yl)pyridylsulfonyl]hydrazine-1-carboxamide], 1000 to 5000 nM. Under `CC(NC(=O)NNS(=O)(=O)c1ccccc1OC(F)(F)F)(C(F)(F)F)C(F)(F)F` [Example 28, N-2-(1,1,1,3,3,3-Hexafluoro-2-methylpropyl)-2-[(2-trifluoromethoxyphenyl)sulfonyl] hydrazine-1-carboxamide] stands 1000 to 5000 nM. In the case of `CC(NC(=O)NNS(=O)(=O)c1ccc(Cl)cc1Cl)(C(F)(F)F)C(F)(F)F` [Example 29, N-2-(1,1,1,3,3,3-Hexafluoro-2-methylpropyl)-2-[(2,4-dichlorophenyl)sulfonyl]hydrazine-1-carboxamide], the EC50 fell in the range of 1000 to 5000 nM. In the case of `CC(NC(=O)NNS(=O)(=O)c1ccccc1)(C(F)(F)F)C(F)(F)F` [Example 30, N-2-(1,1,1,3,3,3-Hexafluoro-2-methylpropyl)-2-[phenylsulfonyl]hydrazine-1-carboxamide], the EC50 is 1000 to 5000 nM. For `CC(NC(=O)NNS(=O)(=O)c1cccc(OC(F)F)c1)(C(F)(F)F)C(F)(F)F` [Example 31, N-2-(1,1,1,3,3,3-Hexafluoro-2-methylpropyl)-2-[(3-difluoromethoxyphenyl)sulfonyl] hydrazine-1-carboxamide] the value was 1000 to 5000 nM; for `CC(NC(=O)NNS(=O)(=O)c1cccc(C#N)c1)(C(F)(F)F)C(F)(F)F` [Example 32, N-2-(1,1,1,3,3,3-Hexafluoro-2-methylpropyl)-2-[(3-cyanophenyl)sulfonyl]hydrazine-1-carboxamide], 1000 to 5000 nM.

As for `CC(NC(=O)NNS(=O)(=O)c1ccc(C#N)cc1)(C(F)(F)F)C(F)(F)F` [Example 33, N-2-(1,1,1,3,3,3-Hexafluoro-2-methylpropyl)-2-[(4-cyanophenyl)sulfonyl]hydrazine-1-carboxamide], the EC50 was 1000 to 5000 nM. Under `CC(NC(=O)NNS(=O)(=O)c1cccc2c1OCCO2)(C(F)(F)F)C(F)(F)F` [Example 34, N-2-(1,1,1,3,3,3-Hexafluoro-2-methylpropyl)-2-[5-(2,3-dihydrobenzo[1,4]dioxinyl)sulfonyl]hydrazine-1-carboxamide] stands 1000 to 5000 nM; under `Cc1ccc(S(=O)(=O)NN(C)C(=O)NC(C)(C(F)(F)F)C(F)(F)F)cc1` [Example 35], 1000 to 5000 nM. Under `CC(NC(=O)NNS(=O)(=O)c1cccc(F)c1)(C(F)(F)F)C(F)(F)F` [Example 36, N-2-(1,1,1,3,3,3-Hexafluoro-2-methylpropyl)-2-[(3-fluorophenyl)sulfonyl]hydrazine-1-carboxamide] stands 1000 to 5000 nM; under `CC(NC(=O)NNS(=O)(=O)c1ccc(F)c(F)c1)(C(F)(F)F)C(F)(F)F` [Example 37, N-2-(1,1,1,3,3,3-Hexafluoro-2-methylpropyl)-2-[(3,4-difluorophenyl)sulfonyl]hydrazine-1-carboxamide], 1000 to 5000 nM; under `Cc1nc(C)c(S(=O)(=O)NNC(=O)NC(C)(C(F)(F)F)C(F)(F)F)s1` [Example 38, N-2-(1,1,1,3,3,3-Hexafluoro-2-methylpropyl)-2-[(2,4-dimethylthiazol-5-yl)sulfonyl]hydrazine-1-carboxamide], 1000 to 5000 nM. Regarding `CC(NC(=O)NNS(=O)(=O)c1c(F)cccc1F)(C(F)(F)F)C(F)(F)F` [Example 40, N-2-(1,1,1,3,3,3-Hexafluoro-2-methylpropyl)-2-[(2,6-difluorophenyl)sulfonyl]hydrazine-1-carboxamide], the EC50 lay within 1000 to 5000 nM. Under `CC(NC(=O)NNS(=O)(=O)c1ccccc1F)(C(F)(F)F)C(F)(F)F` [Example 41, N-2-(1,1,1,3,3,3-Hexafluoro-2-methylpropyl)-2-[(2-fluorophenyl)sulfonyl]hydrazine-1-carboxamide] stands 1000 to 5000 nM; under `CC(NC(=O)NNS(=O)(=O)c1cc(F)ccc1F)(C(F)(F)F)C(F)(F)F` [Example 42, N-2-(1,1,1,3,3,3-Hexafluoro-2-methylpropyl)-2-[(2,5-difluorophenyl)sulfonyl]hydrazine-1-carboxamide], 1000 to 5000 nM.
